The target in one assay is human PDE-5A1 (Homo sapiens (Human), UniProt O76074). The assay can be described thus: Human PDE-5A1 inhibition assay (fluorescence polarization, FAM-cGMP). The assay is classed as biochemical. The settings on record: human PDE5A1, 100 nM FAM-cGMP, 60 minutes room temperature. The text has this:
This example illustrates the in vitro inhibition of human PDE-5A1 by exemplary compounds of this disclosure (e.g., as described herein).
Sildenafil citrate (Catalog no. LKT-S3313, Axxora, San Diego, CA), Vardenafil hydrochloride trihydrate (Catalog no. SML2103, Sigma-Aldrich, St. Louis, MO), PDE Assay Buffer (Catalog no. 60393, BPS bioscience, San Diego, CA), PDE Binding Agent (Catalog no. 60390, BPS bioscience, San Diego, CA) and PDE Binding Agent Diluent (cGMP, Catalog no. 60392, BPS bioscience, San Diego, CA) were used for assays. Test compounds were supplied by Ildong Pharmaceuticals Co., Ltd.
The serial dilution of the compounds was first performed in 100% DMSO with the highest concentration at 1 mM and 0.1 mM. Each intermediate compound dilution (in 100% DMSO) will then get directly diluted 10× fold into assay buffer for 10% DMSO and 5 μL of the dilution was added to a 50 μL reaction so that the final concentration of DMSO is 1% in all reactions.
The enzymatic reactions were conducted at room temperature for 60 minutes in a 50 μL mixture containing PDE assay buffer, 100 nM FAM-cGMP, a PDE enzyme (Table 2) and the test compounds.
After enzymatic reaction, 100 μL of a binding solution (1:100 dilution of the binding agent with the binding agent diluent) was added to each reaction and the reaction was performed at room temperature for 60 minutes.
Fluorescence intensity was measured at excitation of 485 nm and an emission of 528 nm using a Tecan Infinite M1000 microplate reader.
PDE activity assays were performed in duplicate at each concentration. Fluorescence intensity is converted to fluorescence polarization using the Tecan Magellan6 software. The fluorescence polarization (FPt) in absence of the compound in each data set was defined as 100% activity. In the absence of PDE and the compound, the value fluorescent polarization (FPb) in each data set was defined as 0% activity. The percent activity in the presence of compound was calculated according to Equation 1:
[formula] where FP=the fluorescence polarization in the presence of the compound.
The values of % activity versus a series of compound concentrations were then plotted using non-linear regression analysis of Sigmoidal dose-response curve generated with Equation 2:
[formula] where Y=percent activity, B=minimum percent activity, T=maximum percent activity, X=logarithm of compound, and Hill Slope=slope factor or Hill coefficient. The IC50 value was determined by the concentration causing a half-maximal percent activity. Results

Another assay concerns the target androgen receptor (AR) (Homo sapiens (Human), UniProt P10275). In words: Androgen receptor (AR) reporter assay, antagonist screen activated by R1881. The assay is classed as cell-based. The following applies: AR-UAS-bla GripTite 293 cells, antagonist mode, R1881 at EC80. The procedure: The protocols and results of this Example were carried out and obtained by Thermofisher Scientific.
Test compounds were received at 1000× (or greater) of the desired starting concentration in 100% DMSO. If compounds were supplied at greater that 1000× concentration, an initial dilution is made in 100% DMSO to bring the compounds to 1000× concentration. The 1000× test compounds were serially diluted (10 point ½-log increments) in 100% DMSO.
The Substrate Loading Solution consists of three Life Technologies reagents: Solution A (10 mM LiveBLAzer™-FRET B/G Substrate), Solution B and Solution C.
Androgen Receptor (AR)—Antagonist Screen, Activated by R1881
AR-UAS-bla GripTite™ 293 cells were thawed and resuspended in Assay Media (DMEM phenol red free, 2% CD-treated FBS, 0.1 mM NEAA, 1 mM Sodium Pyruvate, 100 U/mL/100 μg/mL Pen/Strep) to a concentration of 312,500 cells/mL. 4 μL of a 10× serial dilution of Cyproterone Acetate (control antagonist starting concentration, 3,160 nM) or compounds are added to appropriate wells of a Poly-D-Lysine assay plate. 32 μL of cell suspension was added to the wells and pre-incubated at 37° C./5% CO2 in a humidified incubator with compounds and control antagonist titration for 30 minutes. 4 μL of 10× control agonist R1881 at the pre-determined EC80 concentration was added to wells containing the control antagonist or compounds. The plate was incubated for 16-24 hours at 37° C./5% CO2 in a humidified incubator. 8 μL of 1 μM Substrate Loading Solution is added to each well and the plate was incubated for 2 hours at room temperature. The plate was read on a fluorescence plate reader (Tecan Safire^2).

In a further assay the target is Human androgen receptors (Homo sapiens (Human), UniProt P10275, T878A). In words: Androgen receptor (AR) radioligand binding assay. The following applies: read-out: AR IC50. The procedure: Methods employed in this study have been adapted from the following literature procedure.
Sequence of Human androgen receptors (P10275 whole entry T878A): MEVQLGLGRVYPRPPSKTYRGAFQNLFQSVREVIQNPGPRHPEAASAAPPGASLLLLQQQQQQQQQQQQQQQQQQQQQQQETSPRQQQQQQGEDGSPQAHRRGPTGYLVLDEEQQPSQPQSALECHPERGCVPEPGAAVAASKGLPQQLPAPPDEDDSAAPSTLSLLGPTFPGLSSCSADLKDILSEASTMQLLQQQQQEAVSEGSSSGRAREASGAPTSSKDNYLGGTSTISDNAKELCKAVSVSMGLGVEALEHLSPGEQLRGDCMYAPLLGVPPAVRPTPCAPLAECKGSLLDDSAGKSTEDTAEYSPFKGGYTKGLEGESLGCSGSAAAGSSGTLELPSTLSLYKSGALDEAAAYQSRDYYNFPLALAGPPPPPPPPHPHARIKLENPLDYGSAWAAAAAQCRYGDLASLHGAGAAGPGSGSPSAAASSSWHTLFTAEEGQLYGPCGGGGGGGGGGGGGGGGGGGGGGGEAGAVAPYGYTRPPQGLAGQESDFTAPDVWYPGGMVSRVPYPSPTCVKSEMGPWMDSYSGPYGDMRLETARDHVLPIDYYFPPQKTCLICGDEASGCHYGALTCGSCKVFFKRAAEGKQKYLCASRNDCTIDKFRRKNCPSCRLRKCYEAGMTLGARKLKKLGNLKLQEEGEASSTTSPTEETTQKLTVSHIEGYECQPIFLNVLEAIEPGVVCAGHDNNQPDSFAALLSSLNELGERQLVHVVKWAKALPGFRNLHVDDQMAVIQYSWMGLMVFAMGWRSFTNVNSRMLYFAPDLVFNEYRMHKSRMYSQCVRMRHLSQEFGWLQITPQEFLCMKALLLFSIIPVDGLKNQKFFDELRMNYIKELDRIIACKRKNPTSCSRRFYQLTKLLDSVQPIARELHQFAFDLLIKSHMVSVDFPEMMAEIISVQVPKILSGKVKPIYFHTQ
Human androgen receptors obtained from human LNCaP cells are used in modified HEPES buffer pH 7.4. […] Non-specific binding is estimated in the presence of 1 μM testosterone. […] (See, e.g., Traish, A. M et al., Binding of 7α, 17α-dimethyl-19-nortestosterone (Mibolerone) to androgen and progesterone receptors in human and animal tissues. Endocrinology. 118(4): 1327-1333, 1986).
Compounds are screened at 10 μM.
Where presented, IC50 values were determined by a non-linear, least squares regression analysis using MathIQ™ (ID Business Solutions Ltd., UK).

Sequence of androgen receptor (AR) (P10275 other isoform, or with tags, fused parts or gaps): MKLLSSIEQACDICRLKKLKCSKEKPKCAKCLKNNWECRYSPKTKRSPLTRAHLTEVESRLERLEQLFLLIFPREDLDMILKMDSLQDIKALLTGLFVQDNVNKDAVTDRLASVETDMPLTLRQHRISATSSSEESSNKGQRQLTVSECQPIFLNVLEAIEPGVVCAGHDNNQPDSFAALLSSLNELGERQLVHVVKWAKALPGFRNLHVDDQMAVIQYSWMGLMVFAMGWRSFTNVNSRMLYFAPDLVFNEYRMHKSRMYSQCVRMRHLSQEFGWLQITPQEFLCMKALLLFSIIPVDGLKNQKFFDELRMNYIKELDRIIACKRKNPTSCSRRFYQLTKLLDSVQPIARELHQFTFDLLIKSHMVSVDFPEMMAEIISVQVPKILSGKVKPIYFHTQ

At human PDE-5A1, `CCCc1nn(C)c2c(=O)[nH]c(-c3cc(S(=O)(=O)Nc4cnc(C#N)c(C(F)(F)F)c4)ccc3OCC)nc12` [Compound 5, N-(6-cyano-5-(trifluoromethyl)pyridin-3-yl)-4-ethoxy-3-(1-methyl-7-oxo-3-propyl-6,7-dihydro-1H-pyrazolo[4,3-d]pyrimidin-5-yl)benzenesulfonamide] showed an IC50 of at most 10 nM.

Consider `CCCc1nc(C)c2c(=O)[nH]c(-c3cc(S(=O)(=O)Nc4cnc(C#N)c(C(F)(F)F)c4)ccc3OCC)nn12` [Compound 6, N-(6-cyano-5-(trifluoromethyl)pyridin-3-yl)-4-ethoxy-3-(5-methyl-4-oxo-7-propyl-3,4-dihydroimidazo[5,1-f][1,2,4]triazin-2-yl)benzenesulfonamide], for which the IC50 on human PDE-5A1 is at most 10 nM.

`CCCc1nc(C)c2c(=O)[nH]c(-c3cc(NC(=S)Nc4ccc(C#N)c(C(F)(F)F)c4)ccc3OCC)nn12` [Compound 28, 1-(4-cyano-3-(trifluoromethyl)phenyl)-3-(4-ethoxy-3-(5-methyl-4-oxo-7-propyl-3,4-dihydroimidazo [5,1-f][1,2,4]triazin-2-yl)phenyl)thiourea]: the IC50 was at most 10 nM against human PDE-5A1 and over 100 nM on androgen receptor (AR).

For the compound `CCCc1nc(C)c2c(=O)[nH]c(-c3cc(N4C(=S)N(c5cnc(C#N)c(C(F)(F)F)c5)C(=O)C45CCC5)ccc3OCC)nn12` [Compound 24, 5-(5-(4-ethoxy-3-(5-methyl-4-oxo-7-propyl-3,4-dihydroimidazo[5,1-f][1,2,4]triazin-2-yl)phenyl)-8-oxo-6-thioxo-5,7-diazaspiro[3.4]octan-7-yl)-3-(trifluoromethyl)picolinonitrile], the results for the concentration for half-maximal inhibition (IC50) at human PDE-5A1 and at Human androgen receptors were at most 10 nM and 50 to 200 nM, respectively.

On human PDE-5A1, `CCCc1nn(C)c2c(=O)[nH]c(-c3cc(S(=O)(=O)C[C@](C)(O)C(=O)Nc4ccc(C#N)c(C(F)(F)F)c4)ccc3OCC)nc12` [Compound 3, (R)-N-(4-cyano-3-(trifluoromethyl)phenyl)-3-((4-ethoxy-3-(1-methyl-7-oxo-3-propyl-6,7-dihydro-1H-pyrazolo[4,3-d]pyrimidin-5-yl)phenyl)sulfonyl)-2-hydroxy-2-methylpropanamide] displayed an IC50 of 10 to 100 nM.

On human PDE-5A1, `CCCc1nc(C)c2c(=O)[nH]c(-c3cc(S(=O)(=O)Nc4ccc(C#N)c(C(F)(F)F)c4)ccc3OCC)nn12` [Compound 7, N-(4-cyano-3-(trifluoromethyl)phenyl)-4-ethoxy-3-(5-methyl-4-oxo-7-propyl-3,4-dihydroimidazo[5,1-f][1,2,4]triazin-2-yl)benzenesulfonamide] gave an IC50 of at most 10 nM.

In turn, `CCCc1nc(C)c2c(=O)[nH]c(-c3cc(S(=O)(=O)N[C@H]4C[C@H](C(O)C(F)(F)F)N(c5ccc(C#N)c(C(F)(F)F)c5)C4)ccc3OCC)nn12` (stereo partly drawn) [Compound 10, N-((3S,5R)-1-(4-cyano-3-(trifluoromethyl)phenyl)-5-(2,2,2-trifluoro-1-hydroxyethyl)pyrrolidin-3-yl)-4-ethoxy-3-(5-methyl-4-oxo-7-propyl-3,4-dihydroimidazo[5,1-f][1,2,4]triazin-2-yl)benzenesulfonamide] came in with an IC50 on human PDE-5A1 of at most 10 nM.

As for `CCCc1nn(C)c2c(=O)[nH]c(-c3cc(S(=O)(=O)NC[C@@](C)(O)C(=O)Nc4ccc(C#N)c(C(F)(F)F)c4)ccc3OCC)nc12` [Compound 4, (R)-N-(4-cyano-3-(trifluoromethyl)phenyl)-3-((4-ethoxy-3-(1-methyl-7-oxo-3-propyl-6,7-dihydro-1H-pyrazolo[4,3-d]pyrimidin-5-yl)phenyl)sulfonamido)-2-hydroxy-2-methylpropanamide], the IC50 on human PDE-5A1 lay within 10 to 100 nM.

The compound `CCCc1nn(C)c2c(=O)[nH]c(-c3cc(S(=O)(=O)Nc4ccc(C#N)c(C(F)(F)F)c4)ccc3OCC)nc12` [Compound 1, N-(4-cyano-3-(trifluoromethyl)phenyl)-4-ethoxy-3-(1-methyl-7-oxo-3-propyl-6,7-dihydro-1H-pyrazolo[4,3-d]pyrimidin-5-yl)benzenesulfonamide] yielded a 50% inhibitory concentration (IC50) at human PDE-5A1 of at most 10 nM.

As for `CCCc1nn(C)c2c(=O)[nH]c(-c3cc(S(=O)(=O)N[C@@H](C)Cn4ccc(-c5ccc(C#N)c(Cl)c5)n4)ccc3OCC)nc12` [Compound 11, (S)-N-(1-(3-(3-chloro-4-cyanophenyl)-1H-pyrazol-1-yl)propan-2-yl)-4-ethoxy-3-(1-methyl-7-oxo-3-propyl-6,7-dihydro-1H-pyrazolo[4,3-d]pyrimidin-5-yl)benzenesulfonamide], at human PDE-5A1, the half-inhibitory concentration (IC50) is over 100 nM.

On to `CCCc1nc(C)c2c(=O)[nH]c(-c3cc(S(=O)(=O)Nc4ccc(C#N)c(Cl)c4)ccc3OCC)nn12` [Compound 9, N-(3-chloro-4-cyanophenyl)-4-ethoxy-3-(5-methyl-4-oxo-7-propyl-3,4-dihydroimidazo[5,1-f][1,2,4]triazin-2-yl)benzenesulfonamide], for which the IC50 on human PDE-5A1 is at most 10 nM.

`CCCc1nn(C)c2c(=O)[nH]c(-c3cc(S(=O)(=O)Nc4ccc(C#N)c(Cl)c4)ccc3OCC)nc12` [Compound 8, N-(3-chloro-4-cyanophenyl)-4-ethoxy-3-(1-methyl-7-oxo-3-propyl-6,7-dihydro-1H-pyrazolo[4,3-d]pyrimidin-5-yl)benzenesulfonamide]: on human PDE-5A1, the half-maximal inhibitory concentration (IC50) is at most 10 nM.

On to `CCCc1nc(C)c2c(=O)[nH]c(-c3cc(N4CC(=O)N(c5ccc(C#N)c(C(F)(F)F)c5)C4=S)ccc3OCC)nn12` [Compound 25, 4-(3-(4-ethoxy-3-(5-methyl-4-oxo-7-propyl-3,4-dihydroimidazo[5,1-f][1,2,4]triazin-2-yl)phenyl)-5-oxo-2-thioxoimidazolidin-1-yl)-2-(trifluoromethyl)benzonitrile], for which the results for the IC50 against human PDE-5A1 and on androgen receptor (AR) were at most 10 nM and over 100 nM, respectively.

With `CCCc1nc(C)c2c(=O)[nH]c(-c3cc(NC(=O)Nc4ccc(C#N)c(C(F)(F)F)c4)ccc3OCC)nn12` [Compound 27, 1-(4-cyano-3-(trifluoromethyl)phenyl)-3-(4-ethoxy-3-(5-methyl-4-oxo-7-propyl-3,4-dihydroimidazo[5,1-f][1,2,4]triazin-2-yl)phenyl)urea], the concentration for half-maximal inhibition (IC50) on human PDE-5A1 was at most 10 nM; against androgen receptor (AR), over 100 nM.

Consider `CCCc1nn(C)c2c(=O)[nH]c(-c3cc(SC[C@](C)(O)C(=O)Nc4ccc(C#N)c(C(F)(F)F)c4)ccc3OCC)nc12` [Compound 2, (R)-N-(4-cyano-3-(trifluoromethyl)phenyl)-3-((4-ethoxy-3-(1-methyl-7-oxo-3-propyl-6,7-dihydro-1H-pyrazolo[4,3-d]pyrimidin-5-yl)phenyl)thio)-2-hydroxy-2-methylpropanamide], for which, on human PDE-5A1, the IC50 was in the range of 10 to 100 nM.

These data come from patent US11787812B2, “Substituted pyrazolo[4,3-d]pyrimidines and imidazo[5,1 -f][1,2,4]triazines as androgen receptor and phosphodiesterase dual inhibitors” (ILDONG PHARMACEUTICAL CO., LTD., priority 2020, dated 2023).
